These results are taken from publication PMC9781320 (Marine Drugs, 2022).

In assay [1] the target is T1, α7 nAChR (Rattus norvegicus, UniProt Q05941).
T1 construct: expressed in transfected cells; host or cells: Xenopus oocytes, cRNA injected
It is filed as cell-based. Conditions: SEM.

The target of assay [2] is T2, α3β4 nAChR (Rattus norvegicus, UniProt P04757+P12392).
T2 construct: expressed in transfected cells; host or cells: Xenopus oocytes, cRNA injected
It is filed as cell-based. Conditions: SEM.

For assay [3], the target named is T3, GABABR-coupled CaV2.2 (Homo sapiens, UniProt O75899+Q9UBS5).
T3 construct: expressed in transfected cells
Briefly: cell-based. Conditions: for inhibition at 1 µM: HEK293, read-out: Inhibition Efficacy (1 µM)%, SEM; for IC50: IC50 (nM) (95% Confidence Interval). On the set-up: species or system rat Cav2.2.

Assay [4] concerns the target T4, α9α10 nAChR (Rattus norvegicus, UniProt P43144+Q9JLB5).
T4 construct: expressed in transfected cells; host or cells: Xenopus oocytes, cRNA injected
It is filed as cell-based. The note with it: SEM.

In assay [5] the target is T5, α4β4 nAChR (Rattus norvegicus, UniProt P09483+P12392).
T5 construct: expressed in transfected cells; host or cells: Xenopus oocytes, cRNA injected
The format is cell-based. Conditions: SEM.

In assay [6] the target is T6, α3β2 nAChR (Rattus norvegicus, UniProt P04757+P12390).
T6 construct: expressed in transfected cells; host or cells: Xenopus oocytes, cRNA injected
It is filed as cell-based. The note with it: SEM.

For assay [7], the target named is T7, CaV2.2 (Rattus norvegicus, UniProt Q02294).
T7 construct: expressed in transfected cells; host or cells: HEK293
It is filed as cell-based.

Assay [8] deals with T8, α2β4 nAChR (Rattus norvegicus, UniProt P12389+P12392).
T8 construct: expressed in transfected cells; host or cells: Xenopus oocytes, cRNA injected
It is filed as cell-based. Conditions: SEM.

In assay [9] the target is T9, α4β2 nAChR (Rattus norvegicus, UniProt P09483+P12390).
T9 construct: expressed in transfected cells; host or cells: Xenopus oocytes, cRNA injected
The format is cell-based. The note with it: SEM.

The test system of assay [10] is GABABR-coupled CaV2.2. Conditions: cited from earlier work.

Positions of bridges follow the written chain, without caps; N, C: chain ends. Residues, ends and D or L forms follow the SMILES beside them.

T3 sequence (Q9UBS5 15-961 limits assumed): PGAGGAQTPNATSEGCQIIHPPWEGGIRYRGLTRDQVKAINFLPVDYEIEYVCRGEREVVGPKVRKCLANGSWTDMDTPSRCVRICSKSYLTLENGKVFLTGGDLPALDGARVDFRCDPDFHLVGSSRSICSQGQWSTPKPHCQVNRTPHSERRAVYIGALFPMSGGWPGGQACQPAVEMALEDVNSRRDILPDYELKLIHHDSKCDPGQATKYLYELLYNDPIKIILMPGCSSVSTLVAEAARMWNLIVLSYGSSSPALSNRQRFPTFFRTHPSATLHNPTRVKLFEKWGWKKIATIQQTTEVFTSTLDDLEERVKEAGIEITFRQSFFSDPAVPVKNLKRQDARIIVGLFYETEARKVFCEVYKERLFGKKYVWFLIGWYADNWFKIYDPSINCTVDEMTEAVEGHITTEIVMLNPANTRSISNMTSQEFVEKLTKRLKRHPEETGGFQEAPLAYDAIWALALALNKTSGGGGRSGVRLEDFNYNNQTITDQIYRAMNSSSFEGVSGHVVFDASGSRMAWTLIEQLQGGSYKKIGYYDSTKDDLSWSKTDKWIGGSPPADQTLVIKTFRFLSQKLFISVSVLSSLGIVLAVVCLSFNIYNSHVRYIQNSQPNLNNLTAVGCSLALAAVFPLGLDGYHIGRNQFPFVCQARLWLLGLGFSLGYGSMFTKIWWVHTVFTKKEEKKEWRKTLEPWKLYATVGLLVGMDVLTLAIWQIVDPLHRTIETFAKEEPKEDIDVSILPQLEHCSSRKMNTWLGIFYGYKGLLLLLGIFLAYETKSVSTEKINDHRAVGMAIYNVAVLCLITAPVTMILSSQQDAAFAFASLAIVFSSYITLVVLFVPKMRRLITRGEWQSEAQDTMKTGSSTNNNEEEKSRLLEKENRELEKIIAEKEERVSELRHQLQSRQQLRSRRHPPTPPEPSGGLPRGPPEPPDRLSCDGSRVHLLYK
T3 sequence (O75899 42-941): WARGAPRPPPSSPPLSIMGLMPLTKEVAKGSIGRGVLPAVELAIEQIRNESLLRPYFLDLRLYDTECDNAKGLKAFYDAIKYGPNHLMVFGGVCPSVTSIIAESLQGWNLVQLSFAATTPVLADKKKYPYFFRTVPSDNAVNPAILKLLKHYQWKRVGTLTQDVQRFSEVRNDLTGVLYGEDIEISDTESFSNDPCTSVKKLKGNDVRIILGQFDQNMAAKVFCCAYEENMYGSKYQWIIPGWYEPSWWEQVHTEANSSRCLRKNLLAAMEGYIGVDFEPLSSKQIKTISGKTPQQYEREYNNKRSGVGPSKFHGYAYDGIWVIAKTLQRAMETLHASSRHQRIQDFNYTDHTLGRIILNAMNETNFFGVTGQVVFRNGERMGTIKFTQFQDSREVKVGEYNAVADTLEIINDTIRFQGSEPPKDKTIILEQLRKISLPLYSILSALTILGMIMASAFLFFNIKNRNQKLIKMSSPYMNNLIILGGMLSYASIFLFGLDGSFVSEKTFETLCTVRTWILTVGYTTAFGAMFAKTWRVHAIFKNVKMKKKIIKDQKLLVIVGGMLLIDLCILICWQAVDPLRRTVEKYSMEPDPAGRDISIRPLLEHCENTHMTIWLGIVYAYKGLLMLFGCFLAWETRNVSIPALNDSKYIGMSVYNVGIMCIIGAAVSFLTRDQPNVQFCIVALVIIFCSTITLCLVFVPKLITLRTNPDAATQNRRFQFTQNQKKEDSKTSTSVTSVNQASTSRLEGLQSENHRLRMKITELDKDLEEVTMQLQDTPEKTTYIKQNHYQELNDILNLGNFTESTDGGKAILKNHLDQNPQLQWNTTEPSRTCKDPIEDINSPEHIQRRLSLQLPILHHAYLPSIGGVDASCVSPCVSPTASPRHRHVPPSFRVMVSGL
T1 sequence (Q05941 23-502 limits assumed): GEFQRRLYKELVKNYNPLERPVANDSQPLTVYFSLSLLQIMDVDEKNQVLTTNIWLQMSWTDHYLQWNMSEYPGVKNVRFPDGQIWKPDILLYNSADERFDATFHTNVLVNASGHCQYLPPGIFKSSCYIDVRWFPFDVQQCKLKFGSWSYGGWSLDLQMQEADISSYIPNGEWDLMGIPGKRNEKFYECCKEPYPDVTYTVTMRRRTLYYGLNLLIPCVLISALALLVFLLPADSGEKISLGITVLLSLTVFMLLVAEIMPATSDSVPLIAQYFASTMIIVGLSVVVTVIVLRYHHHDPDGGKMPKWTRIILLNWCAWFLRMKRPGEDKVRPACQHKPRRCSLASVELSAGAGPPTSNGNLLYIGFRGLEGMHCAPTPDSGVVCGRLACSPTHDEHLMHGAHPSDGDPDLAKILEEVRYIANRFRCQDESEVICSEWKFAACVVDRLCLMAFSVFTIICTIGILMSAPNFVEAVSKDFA
T8 sequence (P12389 28-511 limits assumed): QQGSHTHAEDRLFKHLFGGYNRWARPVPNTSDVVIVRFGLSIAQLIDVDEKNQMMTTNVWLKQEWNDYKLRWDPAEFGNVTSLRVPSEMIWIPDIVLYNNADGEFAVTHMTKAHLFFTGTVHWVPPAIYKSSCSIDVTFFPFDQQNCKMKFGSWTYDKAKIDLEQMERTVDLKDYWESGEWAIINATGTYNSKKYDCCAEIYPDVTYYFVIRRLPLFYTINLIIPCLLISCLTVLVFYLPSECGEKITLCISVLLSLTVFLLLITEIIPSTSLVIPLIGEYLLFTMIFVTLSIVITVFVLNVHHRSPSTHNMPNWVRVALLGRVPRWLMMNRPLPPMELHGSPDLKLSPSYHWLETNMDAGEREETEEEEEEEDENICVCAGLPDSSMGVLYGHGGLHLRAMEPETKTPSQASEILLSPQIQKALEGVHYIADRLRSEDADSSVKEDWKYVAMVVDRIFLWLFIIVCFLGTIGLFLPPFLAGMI
T8 sequence (P12392 21-495 limits assumed): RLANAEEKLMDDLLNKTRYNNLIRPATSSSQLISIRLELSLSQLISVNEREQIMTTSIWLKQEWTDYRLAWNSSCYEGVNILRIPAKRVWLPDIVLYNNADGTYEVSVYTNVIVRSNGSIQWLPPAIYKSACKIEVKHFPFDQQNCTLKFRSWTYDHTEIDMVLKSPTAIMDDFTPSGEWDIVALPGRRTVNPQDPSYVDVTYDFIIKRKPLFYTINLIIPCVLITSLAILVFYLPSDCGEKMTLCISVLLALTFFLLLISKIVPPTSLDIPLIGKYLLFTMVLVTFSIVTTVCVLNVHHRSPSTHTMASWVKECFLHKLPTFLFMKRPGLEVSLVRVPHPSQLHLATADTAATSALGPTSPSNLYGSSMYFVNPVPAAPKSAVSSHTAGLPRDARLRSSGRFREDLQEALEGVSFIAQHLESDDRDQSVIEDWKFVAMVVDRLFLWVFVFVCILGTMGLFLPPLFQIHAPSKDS
T6 sequence (P04757 26-499 limits assumed): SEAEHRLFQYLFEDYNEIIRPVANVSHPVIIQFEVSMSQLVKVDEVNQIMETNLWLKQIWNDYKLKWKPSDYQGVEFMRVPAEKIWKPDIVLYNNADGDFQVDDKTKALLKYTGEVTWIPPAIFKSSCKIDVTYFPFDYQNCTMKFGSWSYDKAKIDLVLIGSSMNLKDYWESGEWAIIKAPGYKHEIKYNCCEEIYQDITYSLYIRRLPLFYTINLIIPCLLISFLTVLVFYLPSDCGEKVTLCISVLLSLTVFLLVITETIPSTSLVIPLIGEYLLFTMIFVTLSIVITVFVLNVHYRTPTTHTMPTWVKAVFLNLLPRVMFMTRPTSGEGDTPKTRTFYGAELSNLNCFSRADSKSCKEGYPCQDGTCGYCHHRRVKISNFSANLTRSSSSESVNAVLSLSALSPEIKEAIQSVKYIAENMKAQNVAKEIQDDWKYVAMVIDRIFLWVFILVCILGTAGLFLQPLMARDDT
T6 sequence (P12390 25-500 limits assumed): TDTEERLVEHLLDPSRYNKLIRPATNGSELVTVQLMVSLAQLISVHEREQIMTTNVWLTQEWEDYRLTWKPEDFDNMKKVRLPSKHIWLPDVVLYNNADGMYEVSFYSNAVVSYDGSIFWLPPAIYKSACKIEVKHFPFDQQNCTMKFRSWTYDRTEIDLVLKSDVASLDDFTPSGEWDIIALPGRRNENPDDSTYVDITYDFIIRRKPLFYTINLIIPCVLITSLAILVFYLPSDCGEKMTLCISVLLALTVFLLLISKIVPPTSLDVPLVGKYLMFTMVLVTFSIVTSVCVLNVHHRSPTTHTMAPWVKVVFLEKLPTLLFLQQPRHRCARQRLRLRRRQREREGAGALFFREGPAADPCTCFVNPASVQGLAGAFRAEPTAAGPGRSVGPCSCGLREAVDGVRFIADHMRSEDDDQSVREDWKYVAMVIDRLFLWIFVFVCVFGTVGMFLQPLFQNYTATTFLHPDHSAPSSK
T2 sequence (P04757 26-499 limits assumed): as the sequence (P04757 26-499 limits assumed) above
T2 sequence (P12392 21-495 limits assumed): as the sequence (P12392 21-495 limits assumed) above
T9 sequence (P09483 31-630 limits assumed): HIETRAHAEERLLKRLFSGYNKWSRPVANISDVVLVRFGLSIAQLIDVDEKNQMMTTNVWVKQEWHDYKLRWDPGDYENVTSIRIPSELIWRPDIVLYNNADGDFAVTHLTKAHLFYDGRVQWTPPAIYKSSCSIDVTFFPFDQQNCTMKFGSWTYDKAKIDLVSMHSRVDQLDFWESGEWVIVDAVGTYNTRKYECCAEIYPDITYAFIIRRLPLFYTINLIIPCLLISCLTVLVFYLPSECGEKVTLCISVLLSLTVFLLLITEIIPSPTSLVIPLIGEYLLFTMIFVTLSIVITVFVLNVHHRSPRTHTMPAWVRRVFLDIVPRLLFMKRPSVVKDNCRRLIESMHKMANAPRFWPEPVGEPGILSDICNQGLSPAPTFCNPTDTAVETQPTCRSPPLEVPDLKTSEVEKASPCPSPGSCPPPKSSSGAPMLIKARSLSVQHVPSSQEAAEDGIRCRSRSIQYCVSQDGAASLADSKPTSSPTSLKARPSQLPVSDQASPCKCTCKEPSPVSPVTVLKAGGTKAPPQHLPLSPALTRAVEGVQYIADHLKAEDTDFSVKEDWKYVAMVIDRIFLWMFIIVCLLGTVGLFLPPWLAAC
T9 sequence (P12390 25-500 limits assumed): as the sequence (P12390 25-500 limits assumed) above

As to `C[C@@H]1NC(=O)[C@H](Cc2ccccc2)NC(=O)[C@@H]2CSSC[C@H](NC(=O)[C@@H](NC(=O)CN)CSSC[C@@H](C(N)=O)NC(=O)[C@H](CC(=O)O)NC(=O)[C@@H]3CCCN3C(=O)[C@H](CC(N)=O)NC(=O)[C@H]([C@@H](C)O)NC1=O)C(=O)N[C@@H](CO)C(=O)N[C@@H](Cc1ccc(O)cc1)C(=O)N1CCC[C@H]1C(=O)N[C@@H](CCCNC(=N)N)C(=O)N2` [AuIB[P7R](ribbon)] (H-GCCSYPRCFATNPDC-NH2; disulfide 2-15, 3-8), in assay [1], the “Inhibitory effect on α7 nAChR” value came out at 17.00 ± 0.35%. Also, the “Inhibitory effect on α3β4 nAChR” value in assay [2] is recorded as 39.27 ± 6.45%. For the same compound, in assay [3], the inhibition (usually the percentage by which the read-out fell short of the control) at 1 µM stood at 51.6 ± 1.86% and it took 0.74 nM to reach half-maximal inhibition (IC50). In addition, the “Inhibitory effect on α9α10 nAChR” value in [4] is on record as 5.09 ± 7.85%. Moreover, the “Inhibitory effect on α4β4 nAChR” value in assay [5] is 30.44 ± 8.03%. Also, the “Inhibitory effect on α3β2 nAChR” value in [6] amounted to 29.25 ± 12.65%. For the same compound, the “direct inhibitory effect on CaV2.2” value in assay [7] was found to be 14.87 ± 2.42%. The “Inhibitory effect on α2β4 nAChR” value in assay [8] is given as 39.43 ± 6.31%. Also, the “Inhibitory effect on α4β2 nAChR” value in assay [9] is given as 35.92 ± 12.50%.
In the case of `CC[C@H](C)[C@@H]1NC(=O)[C@H](CC(=O)O)NC(=O)[C@@H]2CCCN2C(=O)[C@H](CC(N)=O)NC(=O)[C@H]([C@@H](C)O)NC(=O)[C@H](C)NC(=O)[C@H](Cc2ccccc2)NC(=O)[C@@H]2CSSC[C@H](NC(=O)CN)C(=O)N[C@@H](CSSC[C@@H](C(N)=O)NC1=O)C(=O)N[C@@H](CO)C(=O)N[C@@H](Cc1ccc(O)cc1)C(=O)N1CCC[C@H]1C(=O)N1CCC[C@H]1C(=O)N2` [AuIB[+15I]], the inhibition at 1 µM in assay [3] is 30.4 ± 3.26%.
Turning to Vc1.1, the IC50 (as a rule, the midpoint of a concentration-inhibition curve) in assay [10] was 2.38 nM.
As to `CC(C)C[C@@H]1NC(=O)[C@H](CC(=O)O)NC(=O)[C@@H]2CCCN2C(=O)[C@H](CC(N)=O)NC(=O)[C@H]([C@@H](C)O)NC(=O)[C@H](C)NC(=O)[C@H](Cc2ccccc2)NC(=O)[C@@H]2CSSC[C@H](NC(=O)CN)C(=O)N[C@@H](CSSC[C@@H](C(N)=O)NC1=O)C(=O)N[C@@H](CO)C(=O)N[C@@H](Cc1ccc(O)cc1)C(=O)N1CCC[C@H]1C(=O)N1CCC[C@H]1C(=O)N2` [AuIB[+15L]], the inhibition at 1 µM in [3] is 27.9 ± 1.37%.
In the case of `C[C@@H]1NC(=O)[C@H](Cc2ccccc2)NC(=O)[C@@H]2CSSC[C@H](NC(=O)CN)C(=O)N[C@@H](CSSC[C@@H](C(N)=O)NC(=O)[C@H](CC(=O)O)NC(=O)[C@@H]3CCCN3C(=O)[C@H](CC(N)=O)NC(=O)[C@H]([C@@H](C)O)NC1=O)C(=O)N[C@@H](CO)C(=O)N[C@@H](Cc1ccc(O)cc1)C(=O)N1CCC[C@H]1C(=O)N1CCC[C@H]1C(=O)N2` [AuIB(globular), reference compound], in assay [3], the inhibition at 1 µM is 27.4 ± 2.05% and the IC50 came out at 1.93 nM.
